According to US20190352276A1, “INHIBITORS OF BRUTON'S TYROSINE KINASE” (Joint Stock Company "Biocad", priority 2016, published 2019):

Key:
[1] = human, microsomes
Protocol: 2) Metabolic Stability in Human Liver Microsomes
The rate of enzymatic decomposition of a compound was detected by incubating the reaction mixture in a dry block heater at 37° C.; the reaction mixture contained 0.5 mg/mL of pooled human liver microsomes (XenoTech, USA, cat# H6010), 10 mM of a drug candidate, 2 mM β-nicotinamide adenine dinucleotide (Carbosynth, UK, cat#NN10871) and 4 mM of magnesium chloride in 0.1M sodium phosphate buffer pH=7.4. The reaction was terminated by adding 100 μL of acetonitrile for each 100 μL of the reaction mixture. After the reaction was terminated, the samples were centrifuged for 10 min at 10000 rpm. The supernatant was chromatographed using Agilent 1200 chromatograph (Agilent, USA). We used gradient elution (1 mL/min flow rate). We plotted a calibration curve of the logarithm of the peak area vs. time. The gradient of the line corresponded to the elimination rate constant k. Based on the constant, determined using the curve, we calculated the drug's half-life (T1/2) and metabolism rate (CLint).

[2] = system: Caco-2 cells; assay: Permeability through the monolayer of Caco-2 cells; assay type: in vitro ADME
Outline: (§1)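 Bidirectional transport measured over 7200 s with 10 μM compound, using an apical buffer at pH 6.5 and a basolateral Hanks/HEPES/glucose buffer at pH 7.4 containing 1% BSA. Monolayers were 21-day Caco-2 cultures verified with Lucifer Yellow. Chamber concentrations quantified chromatographically to derive Papp in both directions and their B-A/A-B efflux ratio.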

[3] = Permeability through the monolayer of Caco-2 cells; assay type: in vitro ADME; settings: human, 2 h at 37° C.
Outline: as §1

[4] = system: HepG2 cells (hepatocellular carcinoma); assay: General cytotoxicity on HepG2 cells (CC50; therapeutic index CC50 HepG2/IC50 Mino); assay type: cell-based; settings: Table 10; therapeutic index
Outline: (§2)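 Alamar Blue viability after 72 h exposure to compounds (final 200 μM–4 μM) gave CC50; HepG2 plated 2*10^4/well in DMEM 24 h beforehand. Therapeutic index expressed as ratio of HepG2 CC50 to Mino antiproliferative IC50.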

[5] = as above; assay type: cell-based; settings: human, HepG2 cells (hepatocellular carcinoma); Table 10; 72 hours, Alamar Blue; average of several tests
Outline: as §2

[6] = biological target: T1, recombinant Btk kinase enzyme (Homo sapiens, UniProt Q06187); assay: In vitro inhibition of Btk kinase activity (ADP-Glo); assay type: biochemical; settings: Table 8; ADP-Glo; read-out: IC50 kinase BTK
T1 construct: purchased SignalChem B10-10H
Outline: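 IC50 obtained by four-parameter logistic fitting of ADP-Glo luminescence, which reports ADP generated by the kinase. Reaction: recombinant Btk enzyme, 50 μM ATP, 0.5 mg/mL Poly(4:1 Glu,Tyr) peptide, incubated 180 minutes at 37° C. with test compound.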

[7] = system: Z-138 (mantle cell lymphoma); assay: Antiproliferative activity, Z-138 cells (Alamar Blue); assay type: cell-based; settings: Homo sapiens, Table 10, 72 h, average of several tests
Outline: (§3)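 A 72 h growth-inhibition assay using Alamar Blue fluorescence as the viability readout, with IC50 taken from a four-parameter logistic curve.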

[8] = system: Mino (mantle cell lymphoma); assay: Antiproliferative activity, Mino cells (Alamar Blue); assay type: cell-based; settings: Homo sapiens, Table 10, 72 h, average of several tests
Outline: as §3

[9] = system: DOHH2 (follicular lymphoma); assay: Antiproliferative activity, DOHH2 cells (Alamar Blue); assay type: cell-based; settings: Homo sapiens, DOHH-2, Table 10, 72 h, average of several tests
Outline: as §3

[10] = Chemical stability in artificial gastric fluid (SGF without enzymes); settings: 10 μM in SGF without enzymes, pH=1.4, 37° C.
Protocol: The initial candidate solution (10 mM in DMSO) was diluted with the working solution of SGF to the concentration of 10 μm (test solution). The test solution was incubated in a dry block heater at 37° C. We determined peak areas of the compounds corresponding to the start of the test (before incubating) and the end of the test (after incubating in a dry block heater at 37° C.) by HPLC using Agilent1200 chromatograph (Agilent, USA). We used gradient elution (1 mL/min flow rate). We determined amount of substance in the sample in % after incubation.
We evaluated the stability of the compounds.

T1 sequence (Q06187 whole entry): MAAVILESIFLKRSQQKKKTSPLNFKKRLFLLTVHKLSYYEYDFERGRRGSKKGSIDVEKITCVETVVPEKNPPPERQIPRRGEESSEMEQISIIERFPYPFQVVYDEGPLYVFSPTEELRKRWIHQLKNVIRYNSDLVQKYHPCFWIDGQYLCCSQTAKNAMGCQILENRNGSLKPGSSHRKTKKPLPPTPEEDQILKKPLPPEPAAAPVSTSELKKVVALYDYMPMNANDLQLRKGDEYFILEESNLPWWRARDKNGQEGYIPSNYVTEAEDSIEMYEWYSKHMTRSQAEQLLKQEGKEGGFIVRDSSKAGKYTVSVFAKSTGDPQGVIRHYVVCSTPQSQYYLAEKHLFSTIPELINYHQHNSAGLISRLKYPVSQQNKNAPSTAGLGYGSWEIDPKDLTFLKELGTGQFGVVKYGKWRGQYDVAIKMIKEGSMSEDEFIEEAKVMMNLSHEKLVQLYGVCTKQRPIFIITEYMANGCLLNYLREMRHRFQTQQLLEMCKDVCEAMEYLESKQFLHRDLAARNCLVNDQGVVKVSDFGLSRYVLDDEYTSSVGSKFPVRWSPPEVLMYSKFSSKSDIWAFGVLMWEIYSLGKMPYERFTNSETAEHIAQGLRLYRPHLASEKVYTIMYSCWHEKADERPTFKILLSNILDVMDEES

Clint (microsome metabolic stability) [1] | efflux (Papp B-A/Papp A-B) [2] | Papp A→B at 2 h, 10 μM [3] | Papp B→A at 2 h, 10 μM [3] | IC50 [6] | IC50 [7] | IC50 [8] | IC50 [9] | Amount of substance in the sample in % (chemical stability) [10] | Compound | CC50 (HepG2)/IC50 (Mino) [4] | CC50 at 72 h [5]
27.4 µL/min/mg |  |  |  |  |  |  |  |  | C=CC(=O)N1CCC[C@@H](n2nc(-c3ccc(Oc4ccncc4)cc3)c3c(N)nccc32)C1 [BCD-BTK -241, (R)-1-(1-acryloylpiperidin-3-yl)-4-amine-3-(4-(pyridin-4-yloxy)phenyl)-1H-pyrazolo[4,3-c]pyridine] |  | 
 | 0.02 | 11.9 ×10⁻⁶ cm/s | 0.21 ×10⁻⁶ cm/s |  |  |  |  |  | C=CC(=O)N1CCC[C@@H](n2nc(-c3ccc(C(=O)Nc4cc(C(F)(F)F)ccn4)cc3)c3cncc(Cl)c32)C1 [BCD-BTK-210, (R)-4-(1-(1-acryloylpiperidin-3-yl)-7-chloro-1H-pyrazolo[4,3-c]pyridin-3-yl)-N-(4-(trifluoromethyl)pyridin-2-yl)benzamide] |  | 
 | 0.05 | 17.8 ×10⁻⁶ cm/s | 0.87 ×10⁻⁶ cm/s | 0.0343 µM | 89.4 µM | 1.28 µM | > 100 µM |  | C=CC(=O)N1CCC[C@@H](n2nc(-c3ccc(C(=O)Nc4cc(C(F)(F)CC)ccn4)cc3)c3cncc(F)c32)C1 [BCD-BTK-214, (R)-4-(1-(1-acryloylpiperidin-3-yl)-7-fluoro-1H-pyrazolo[4,3-c]pyridin-3-yl)-N-(4-(1,1-difluoropropyl)pyridin-2-yl)benzamide] | >77.94 | > 100 µM
 | 0.05 | 5.9 ×10⁻⁶ cm/s | 0.3 ×10⁻⁶ cm/s |  |  |  |  | 96.7% | C=CC(=O)N1CCC[C@@H](n2nc(-c3ccc(C(=O)Nc4cccc(F)n4)cc3)c3cncc(C#N)c32)C1 [BCD-BTK-223, 4-{7-cyano-1-[(3R)-1-(prop-2-enoyl)piperidin-3-yl]-1H-pyrazolo[4,3-c]pyridin-3-yl}-N-(6-fluoropyridin-2-yl)benzamide] |  | 
 | 0.06 | 6.17 ×10⁻⁶ cm/s | 0.37 ×10⁻⁶ cm/s |  | > 50 µM | 4.3 µM | > 100 µM |  | C=CC(=O)N1CCC[C@@H](n2nc(-c3cnc(C(=O)Nc4cc(C(F)(F)CC)ccn4)nc3)c3cncc(Cl)c32)C1 [BCD-BTK-293, (R)-5-(1-(1-acryloylpiperidin-3-yl)-7-chloro-1H-pyrazolo[4,3-c]pyridin-3-yl)-N-(4-(1,1-difluoropropyl)pyridin-2-yl)pyrimidine-2-carboxamide] | >23.23 | > 100 µM
